# Assay results taken from patent publication US20040006070A1, “Intraspinal continuous infusion of midazolam hydrochloride for the treatment of pain” (priority 2002, published 2004).
# Key:
# [1] = Physiological data: indirect blood pressure, pulse, rectal temperature, weight; type: in vivo, sheep; conditions: sheep #980 Dudley
# Excerpt: Daily rectal temperatures were taken and any behavioral/motor changes were noted. Gait monitoring will be conducted as described below based on a four-grade scale for the evaluation of behavioral and motor changes. Grade 0: animal standing, sheep is able to rise and ambulate without any difficulty. Grade 1: Shuffling of either rear leg or slight limp; slight distortion of normal spinal axis. Grade 2: Loss of righting reflex in one of the rear legs, sheep able to stand without assistance, but with some difficulty. Grade 3: Inability to maintain standing posture; attempts to help animal stand are unsuccessful.
# Indirect blood pressure, pulse recording, pain testing (mechanical stimulus device, cold and warm water baths see description in procedure) and weight were taken on days 1, 3, 7, 15, 22, 29, 36, and 43. Venous blood samples (15 ml drawn from the jugular vein with Vacutainer brand blood collection tubes) for complete blood count, electrolytes, and extended blood chemistry were drawn on days 1, 15, and 43 (mild procedure only light hand restraint necessary).
# [2] = system: neuropathic pain model in the sheep; experiment: Neuropathic pain model in sheep, behavior monitoring (Observer 3.0) with visual analog pain score; type: in vivo; conditions: sheep #980 Dudley
# Excerpt: The neuropathic pain model in the sheep is created by placing four tight ligatures around the median, radial, or ulnar nerve (or a combination thereof) with 0-chromic gut suture. This method produces a chronic painful peripheral mononeuropathy which may be related to those conditions seen in humans with causalgia and reflex sympathetic dystrophy.
# To evaluate animal behavior, the Observer 3.0 software (Noldus Information Technology, The Netherlands) was used to aid docmentation of a daily record of multiple traits. […] The behavior was then interpreted into a visual analog pain score (VAS), where 0 represents no pain and 100 represents severe pain.
# Approximately three days prior to surgery each sheep will undergo a 15-minute baseline behavior evaluation. The observations made in this evaluation include, a computerized behavior software recording (the Observer) for 15minutes—gait monitoring—and recording of pain perception via visual analog scale-using the Observer. In some animals, recording of vital signs (blood pressure, heart rate, respirations per minute) will be performed using the Observer. Baseline values for pain perception are recorded via the mechanical stimulus device and/or behavior monitoring will also be performed at this time.
# The sheep will be observed daily postoperatively. […] Observations of neuropathic pain development include changes in ambulation, alertness, appetite, urination, defecation, herding activity, body temperature and pain behaviors. This daily behavior is recorded utilizing the observer (an observational software system).
# [3] = MDZ 3 mg per day, daily values, first and second course
# [4] = MS 6.5 mg per day, daily values
compound,measurement,setting,value
Cc1ncc2n1-c1ccc(Cl)cc1C(c1ccccc1F)=NC2 [MDZ],Resp per min.,[1]; MDZ 4 mg per day,58 per min.
same,Other behavior: Defaecation,[2]; MDZ 2 mg per day,0.65%
same,Other behavior: Eating lying,[2]; MDZ 2 mg per day,1.69%
same,Other behavior: Ruminating laying down,[2]; MDZ 2 mg per day,"98.28%,"
same,Other behavior: Ruminating standing,[2]; MDZ 2 mg per day,0.48%
same,Grind teeth,"[2]; MDZ 2 mg per day, daily values",0%
same,Other behavior,"[2]; MDZ 2 mg per day, daily values",0
same,Other behavior: Defaecation,[2]; MDZ 3 mg per day,0.49%
same,Other behavior: Drinking,[2]; MDZ 3 mg per day,0.6%
same,Other behavior: Eating lying,[2]; MDZ 3 mg per day,1.14%
same,Grind teeth,[2]; [3],0%
same,Holding unoperated leg off the ground,[2]; [3],0%
same,Other behavior,[2]; [3],0
same,Eating,[2]; MDZ 4 mg per day,36.49%
same,Grind teeth,[2]; MDZ 4 mg per day,0%
same,Holding operated leg off the ground,[2]; MDZ 4 mg per day,2.78%
same,Holding unoperated leg off the ground,[2]; MDZ 4 mg per day,0.36%
same,Laying down,[2]; MDZ 4 mg per day,0%
same,Not bearing weight on operated leg,[2]; MDZ 4 mg per day,29.65%
same,Observe Operated leg,[2]; MDZ 4 mg per day,1.51%
same,Other behavior: Bleating,[2]; MDZ 4 mg per day,0.76%
same,Pain Score,[2]; MDZ 4 mg per day,50%
same,Standing,[2]; MDZ 4 mg per day,0.52%
same,Walking,[2]; MDZ 4 mg per day,1.09%
same,Grind teeth,"[2]; MDZ 5 mg per day, daily values",0%
same,Holding unoperated leg off the ground,"[2]; MDZ 5 mg per day, daily values",0%
same,Laying down,"[2]; MDZ 5 mg per day, daily values",0%
same,Observe Operated leg,"[2]; MDZ 5 mg per day, daily values",0%
same,Pain Score,"[2]; MDZ 5 mg per day, daily values",85%
same,Standing,"[2]; MDZ 5 mg per day, daily values",0%
same,Other behavior: Defaecation,[2]; MDZ 6 mg per day,0.94%
same,Other behavior: Eating lying,[2]; MDZ 6 mg per day,0.21%
same,Other behavior: Pulling wool,[2]; MDZ 6 mg per day,"0.26%,"
same,Grind teeth,"[2]; MDZ 6 mg per day, daily values",0%
same,Holding unoperated leg off the ground,"[2]; MDZ 6 mg per day, daily values",0%
same,Laying down,"[2]; MDZ 6 mg per day, daily values",0%
same,Other behavior,"[2]; MDZ 6 mg per day, daily values",0
same,Standing,"[2]; MDZ 6 mg per day, daily values",0%
CN1CC[C@]23c4c5ccc(O)c4O[C@H]2[C@@H](O)C=C[C@H]3[C@H]1C5.CN1CC[C@]23c4c5ccc(O)c4O[C@H]2[C@@H](O)C=C[C@H]3[C@H]1C5.O=S(=O)(O)O [MS],Resp per min.,[1]; MS 2 mg per day,22 per min.
same,Resp per min.,[1]; MS 4 mg per day,64 per min.
same,Resp per min.,[1]; MS 6 mg per day,64 per min.
same,Other behavior: Drink,[2]; MS 1 mg per day,0.5%
same,Laying down,"[2]; MS 1 mg per day, daily values",0%
same,Other behavior,"[2]; MS 1 mg per day, daily values",0
same,Eating,[2]; MS 2 mg per day,0%
same,Grind teeth,[2]; MS 2 mg per day,1.39%
same,Holding operated leg off the ground,[2]; MS 2 mg per day,15.88%
same,Holding unoperated leg off the ground,[2]; MS 2 mg per day,0%
same,Laying down,[2]; MS 2 mg per day,0%
same,Not bearing weight on operated leg,[2]; MS 2 mg per day,64.74%
same,Observe Operated leg,[2]; MS 2 mg per day,0.19%
same,Other behavior,[2]; MS 2 mg per day,0
same,Pain Score,[2]; MS 2 mg per day,90%
same,Standing,[2]; MS 2 mg per day,17.34%
same,Walking,[2]; MS 2 mg per day,0.47%
same,Other behavior: Ruminating standing,[2]; MS 3 mg per day,2.69%
same,Holding unoperated leg off the ground,"[2]; MS 3 mg per day, daily values",0%
same,Laying down,"[2]; MS 3 mg per day, daily values",0%
same,Other behavior,"[2]; MS 3 mg per day, daily values",0
same,Pain Score,"[2]; MS 3 mg per day, daily values",85%
same,Standing,"[2]; MS 3 mg per day, daily values",0%
same,Eating,[2]; MS 4 mg per day,4.72%
same,Grind teeth,[2]; MS 4 mg per day,0%
same,Holding operated leg off the ground,[2]; MS 4 mg per day,5.2%
same,Holding unoperated leg off the ground,[2]; MS 4 mg per day,0%
same,Laying down,[2]; MS 4 mg per day,0%
same,Not bearing weight on operated leg,[2]; MS 4 mg per day,69.53%
same,Observe Operated leg,[2]; MS 4 mg per day,0%
same,Other behavior: Ruminating standing,[2]; MS 4 mg per day,15.2%
same,Pain Score,[2]; MS 4 mg per day,83%
same,Standing,[2]; MS 4 mg per day,0%
same,Walking,[2]; MS 4 mg per day,5.36%
same,Other behavior: Bleating,[2]; MS 5 mg per day,0.98%
same,Other behavior: Eating lying,[2]; MS 5 mg per day,"0.7%,"
same,Other behavior: Pulling wool,[2]; MS 5 mg per day,"0.28%,"
same,Other behavior: pawing ground,[2]; MS 5 mg per day,0.85%
same,Grind teeth,"[2]; MS 5 mg per day, daily values",0%
same,Standing,"[2]; MS 5 mg per day, daily values",0%
same,Eating,[2]; MS 6 mg per day,0%
same,Grind teeth,[2]; MS 6 mg per day,0%
same,Holding operated leg off the ground,[2]; MS 6 mg per day,9.77%
same,Holding unoperated leg off the ground,[2]; MS 6 mg per day,0.52%
same,Laying down,[2]; MS 6 mg per day,43.57%
same,Not bearing weight on operated leg,[2]; MS 6 mg per day,35.43%
same,Observe Operated leg,[2]; MS 6 mg per day,0.66%
same,Other behavior,[2]; MS 6 mg per day,0
same,Pain Score,[2]; MS 6 mg per day,80%
same,Standing,[2]; MS 6 mg per day,0.99%
same,Walking,[2]; MS 6 mg per day,9.07%
same,Other behavior: Eating lying,[2]; MS 6.5 mg per day,9.31%
same,Holding unoperated leg off the ground,[2]; [4],0%
same,Other behavior,[2]; [4],0
